Source: ChEMBL document CHEMBL4359915, “Design, synthesis and biological evaluation of novel diazaspiro[4.5]decan-1-one derivatives as potential chitin synthase inhibitors and antifungal agents” (Eur J Med Chem, 2019)
Values after ≈ are worked out from the molar mass of the structure shown.

Legend:
Candida tropicalis = experiment: Inhibition of Candida tropicalis ATCC 750 chitin synthase at 300 ug/ml using UDP-GlcNAc as substrate relative to control
Candida albicans [1] = experiment: Antifungal activity against Candida albicans ATCC 76615 assessed as growth inhibition measured after 24 hrs by two-fold broth dilution method; type: functional; conditions: ATCC 76615, 24 h
Aspergillus fumigatus = experiment: Antifungal activity against Aspergillus fumigatus GIMCC 3.19 assessed as growth inhibition measured after 24 hrs by two-fold broth dilution method; type: functional; conditions: GIMCC 3.19, 24 h
Candida albicans [2] = experiment: Antifungal activity against Candida albicans ATCC 90023 assessed as growth inhibition measured after 24 hrs by two-fold broth dilution method; type: functional; conditions: ATCC 90023, 24 h
Cryptococcus neoformans = experiment: Antifungal activity against Cryptococcus neoformans ATCC 32719 assessed as growth inhibition measured after 24 hrs by two-fold broth dilution method; type: functional; conditions: ATCC 32719, 24 h
Aspergillus flavus = experiment: Antifungal activity against Aspergillus flavus ATCC 16870 assessed as growth inhibition measured after 24 hrs by two-fold broth dilution method; type: functional; conditions: ATCC 16870, 24 h
Staphylococcus aureus [3] = experiment: Antibacterial activity against methicillin-resistant Staphylococcus aureus N315 assessed as growth inhibition measured after 24 hrs by two-fold broth dilution method; type: functional; conditions: N315, 24 h
Staphylococcus aureus [4] = experiment: Antibacterial activity against Staphylococcus aureus ATCC 25923 assessed as growth inhibition measured after 24 hrs by two-fold broth dilution method; type: functional; conditions: ATCC 25923, 24 h
Bacillus spizizenii = experiment: Antibacterial activity against Bacillus subtilis ATCC 6633 assessed as growth inhibition measured after 24 hrs by two-fold broth dilution method; type: functional; conditions: ATCC 6633, 24 h
Escherichia coli = experiment: Antibacterial activity against Escherichia coli JM 109 assessed as growth inhibition measured after 24 hrs by two-fold broth dilution method; type: functional; conditions: JM 109, 24 h
Pseudomonas aeruginosa = experiment: Antibacterial activity against Pseudomonas aeruginosa ATCC 9027 assessed as growth inhibition measured after 24 hrs by two-fold broth dilution method; type: functional; conditions: ATCC 9027, 24 h
Proteus vulgaris = experiment: Antibacterial activity against Bacillus proteus ATCC 8427 assessed as growth inhibition measured after 24 hrs by two-fold broth dilution method; type: functional; conditions: ATCC 8427, 24 h
[5] = Inhibition of Candida tropicalis ATCC 750 chitin synthase using UDP-GlcNAc as substrate

SMILES	inhibition (Candida tropicalis) [%]	MIC (Candida albicans [1]) [µM]	MIC (Aspergillus fumigatus) [µM]	MIC (Candida albicans [2]) [µM]	MIC (Cryptococcus neoformans) [µM]	MIC (Aspergillus flavus) [µM]	MIC (Staphylococcus aureus [3]) [µM]	MIC (Staphylococcus aureus [4]) [µM]	MIC (Bacillus spizizenii) [µM]	MIC (Escherichia coli) [µM]	MIC (Pseudomonas aeruginosa) [µM]	MIC (Proteus vulgaris) [µM]	IC50 [5] [µM]
O=C(Nc1ccccc1)[C@H](O)[C@@H](O)C(=O)N1CCC2(CCNC2=O)CC1	1.8	710 (≈ 257 µg/mL)	1420 (≈ 513 µg/mL)	710 (≈ 257 µg/mL)	710 (≈ 257 µg/mL)	1420 (≈ 513 µg/mL)	710 (≈ 257 µg/mL)	1420 (≈ 513 µg/mL)	710 (≈ 257 µg/mL)	710 (≈ 257 µg/mL)	710 (≈ 257 µg/mL)	1420 (≈ 513 µg/mL)	
O=C(Nc1cccc(Br)c1)[C@H](O)[C@@H](O)C(=O)N1CCC2(CCNC2=O)CC1	79.4	290 (≈ 128 µg/mL)	1160 (≈ 511 µg/mL)	580 (≈ 255 µg/mL)	290 (≈ 128 µg/mL)	280 (≈ 123 µg/mL)	290 (≈ 128 µg/mL)	290 (≈ 128 µg/mL)	1160 (≈ 511 µg/mL)	580 (≈ 255 µg/mL)	580 (≈ 255 µg/mL)	290 (≈ 128 µg/mL)	150
O=C(Nc1cccc(C(F)(F)F)c1)[C@H](O)[C@@H](O)C(=O)N1CCC2(CCNC2=O)CC1	47.1	300 (≈ 129 µg/mL)	600 (≈ 258 µg/mL)	300 (≈ 129 µg/mL)	70 (≈ 30.1 µg/mL)	60 (≈ 25.8 µg/mL)	300 (≈ 129 µg/mL)	300 (≈ 129 µg/mL)	150 (≈ 64.4 µg/mL)	150 (≈ 64.4 µg/mL)	300 (≈ 129 µg/mL)	150 (≈ 64.4 µg/mL)	
C[C@H]1COc2c(N3CCN(C)CC3)c(F)cc3c(=O)c(C(=O)O)cn1c23 [LEVOFLOXACIN]							11 (≈ 3.98 µg/mL)	22 (≈ 7.95 µg/mL)	11 (≈ 3.98 µg/mL)	11 (≈ 3.98 µg/mL)	3 (≈ 1.08 µg/mL)	5 (≈ 1.81 µg/mL)	
O=C(Nc1ccc([N+](=O)[O-])cc1)[C@H](O)[C@@H](O)C(=O)N1CCC2(CCNC2=O)CC1	58.4	1260 (≈ 512 µg/mL)	310 (≈ 126 µg/mL)	1260 (≈ 512 µg/mL)	1260 (≈ 512 µg/mL)	1260 (≈ 512 µg/mL)	630 (≈ 256 µg/mL)	160 (≈ 65 µg/mL)	1260 (≈ 512 µg/mL)	310 (≈ 126 µg/mL)	630 (≈ 256 µg/mL)	310 (≈ 126 µg/mL)	390
O=C(Nc1ccccc1F)[C@H](O)[C@@H](O)C(=O)N1CCC2(CCNC2=O)CC1	23.1	340 (≈ 129 µg/mL)	670 (≈ 254 µg/mL)	670 (≈ 254 µg/mL)	670 (≈ 254 µg/mL)	340 (≈ 129 µg/mL)	340 (≈ 129 µg/mL)	340 (≈ 129 µg/mL)	670 (≈ 254 µg/mL)	670 (≈ 254 µg/mL)	1350 (≈ 512 µg/mL)	670 (≈ 254 µg/mL)	
O=C(Nc1ccc(Cl)cc1Cl)[C@H](O)[C@@H](O)C(=O)N1CCC2(CCNC2=O)CC1	82.8	590 (≈ 254 µg/mL)	590 (≈ 254 µg/mL)	300 (≈ 129 µg/mL)	590 (≈ 254 µg/mL)	300 (≈ 129 µg/mL)	150 (≈ 64.5 µg/mL)	590 (≈ 254 µg/mL)	300 (≈ 129 µg/mL)	150 (≈ 64.5 µg/mL)	300 (≈ 129 µg/mL)	150 (≈ 64.5 µg/mL)	130
COc1cccc(NC(=O)[C@H](O)[C@@H](O)C(=O)N2CCC3(CCNC3=O)CC2)c1	47.5	160 (≈ 62.6 µg/mL)	330 (≈ 129 µg/mL)	650 (≈ 254 µg/mL)	330 (≈ 129 µg/mL)	650 (≈ 254 µg/mL)	650 (≈ 254 µg/mL)	650 (≈ 254 µg/mL)	330 (≈ 129 µg/mL)	650 (≈ 254 µg/mL)	650 (≈ 254 µg/mL)	650 (≈ 254 µg/mL)	
O=C(Nc1ccc(Br)cc1)[C@H](O)[C@@H](O)C(=O)N1CCC2(CCNC2=O)CC1	74.7	290 (≈ 128 µg/mL)	1160 (≈ 511 µg/mL)	290 (≈ 128 µg/mL)	1160 (≈ 511 µg/mL)	150 (≈ 66 µg/mL)	1160 (≈ 511 µg/mL)	580 (≈ 255 µg/mL)	580 (≈ 255 µg/mL)	1160 (≈ 511 µg/mL)	290 (≈ 128 µg/mL)	1160 (≈ 511 µg/mL)	180
